Experimental data as given in ChEMBL document CHEMBL5131413, “Cytotoxic effects of the biflavonoids isolated from Selaginella trichoclada on MCF-7 cells and its potential mechanism” (Bioorg Med Chem Lett, 2022).
Activity calls are given as the source filed them. The rule behind the calls is not given here.

Assays:
Format in all cases: functional, cell-based
MCF7 [1] = experiment: Cytotoxicity against human MCF7 cells measured after 24 hrs by MTT assay; conditions: MCF7, 24 h
MCF7 [2] = experiment: Downregulation of STEAP3 gene in human MCF7 cells at 5 uM by heat map analysis
MCF7 [3] = experiment: Downregulation of ACSL5 gene in human MCF7 cells at 5 uM by heat map analysis
MCF7 [4] = experiment: Downregulation of ACSL4 gene in human MCF7 cells at 5 uM by heat map analysis
MCF7 [5] = experiment: Downregulation of LPCAT3 gene in human MCF7 cells at 5 uM by heat map analysis
MCF7 [6] = experiment: Downregulation of TP53 gene in human MCF7 cells at 5 uM by heat map analysis
MCF7 [7] = experiment: Downregulation of NOXA1 gene in human MCF7 cells at 5 uM by heat map analysis
MCF7 [8] = experiment: Downregulation of NOXO1 gene in human MCF7 cells at 5 uM by heat map analysis
MCF7 [9] = experiment: Downregulation of ATG7 gene in human MCF7 cells at 5 uM by heat map analysis

COc1cc(O)c2c(=O)cc(-c3ccc(O)c(-c4c(O)cc(O)c5c(=O)cc(-c6ccc(O)cc6)oc45)c3)oc2c1 [SEQUOIAFLAVONE] gave an IC50 (MCF7 [1]) of 58.4 µM.

COc1ccc(-c2cc(=O)c3c(O)cc(O)cc3o2)cc1-c1c(O)cc(O)c2c(=O)cc(-c3ccc(O)cc3)oc12 [BILOBETIN] gave an IC50 (MCF7 [1]) of 26.5 µM.

Compound O=c1cc(-c2ccc(O)c(-c3c(O)cc(O)c4c(=O)cc(-c5ccc(O)cc5)oc34)c2)oc2cc(O)cc(O)c12 [AMENTOFLAVONE] has an IC50 (MCF7 [1]) of 75.4 µM.

Work on Cc1c(O)cc2c(c1O)C(=O)C[C@H](c1ccc(Oc3cc(-c4cc(=O)c5c(O)cc(O)cc5o4)ccc3O)cc1)O2 yielded an IC50 (MCF7 [1]) of 32.2 µM.

Work on COc1ccc(-c2cc(=O)c3c(O)cc(O)c(-c4cc(-c5cc(=O)c6c(O)cc(O)cc6o5)ccc4O)c3o2)cc1 [PODOCARPUSFLAVONE A] yielded an IC50 (MCF7 [1]) of 35.1 µM.

With O=C1CC(c2ccc(O)c(-c3c(O)cc4c(c3O)C(=O)CC(c3ccc(O)cc3)O4)c2)Oc2cc(O)cc(O)c21 (stereo not drawn) the IC50 (MCF7 [1]) was 71.2 µM.

Compound O=C1C[C@H](c2ccc(Oc3cc(-c4cc(=O)c5c(O)cc(O)cc5o4)ccc3O)cc2)Oc2cc(O)cc(O)c21 has an IC50 (MCF7 [1]) of 7.7 µM.

Work on O=c1[nH]cc(F)c(=O)[nH]1 [FLUOROURACIL] yielded an IC50 (MCF7 [1]) of 2.2 µM.

With COc1cc(O)c2c(=O)cc(-c3ccc(O)c(-c4c(O)cc5oc(-c6ccc(O)cc6)cc(=O)c5c4OC)c3)oc2c1 the inhibition (MCF7 [2]) was “Active”, the inhibition (MCF7 [3]) was “Active” and the inhibition (MCF7 [4]) was “Active”. The inhibition (MCF7 [5]) was “Active”, the IC50 (MCF7 [1]) was 6.9 µM and the inhibition (MCF7 [6]) was “Active”. The inhibition (MCF7 [7]) was “Active”, the inhibition (MCF7 [8]) was “Active” and the inhibition (MCF7 [9]) was “Active”.

O=c1cc(-c2ccc(Oc3cc(-c4cc(=O)c5c(O)cc(O)cc5o4)ccc3O)cc2)oc2cc(O)cc(O)c12 [OCHNAFLAVONE] was tested, and the IC50 (MCF7 [1]) was 54.5 µM.
